The results in this text go back to US9938260B2, “Soluble guanylate cyclase activators and their use” (GlaxoSmithKline Intellectual Property Development Limited, priority 2014, dated 2018).

The assay concerns the target T1, soluble guanylate cyclase (sGC) (Rattus norvegicus, UniProt P20595).
T1 construct: endogenous in cells; host or cells: primary rat aortic smooth muscle cells
T1 sequence (P20595 1-619): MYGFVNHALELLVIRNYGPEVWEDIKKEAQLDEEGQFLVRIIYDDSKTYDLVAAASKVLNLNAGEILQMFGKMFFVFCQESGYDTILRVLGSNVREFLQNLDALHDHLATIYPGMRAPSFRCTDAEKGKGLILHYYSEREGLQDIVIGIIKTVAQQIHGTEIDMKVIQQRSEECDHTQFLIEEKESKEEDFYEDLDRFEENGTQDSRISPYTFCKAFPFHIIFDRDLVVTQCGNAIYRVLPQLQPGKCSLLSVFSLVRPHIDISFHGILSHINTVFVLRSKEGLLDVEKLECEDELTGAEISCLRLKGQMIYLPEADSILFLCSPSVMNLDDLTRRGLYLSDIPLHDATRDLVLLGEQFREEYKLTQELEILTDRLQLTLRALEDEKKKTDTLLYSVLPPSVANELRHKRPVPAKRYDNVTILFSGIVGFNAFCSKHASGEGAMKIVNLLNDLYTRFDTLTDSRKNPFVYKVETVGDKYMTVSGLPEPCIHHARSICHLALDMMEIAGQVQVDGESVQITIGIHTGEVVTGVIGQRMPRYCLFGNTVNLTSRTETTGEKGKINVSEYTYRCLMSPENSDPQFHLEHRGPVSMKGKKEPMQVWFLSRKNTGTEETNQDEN
T1 sequence (P19686 1-690 partner): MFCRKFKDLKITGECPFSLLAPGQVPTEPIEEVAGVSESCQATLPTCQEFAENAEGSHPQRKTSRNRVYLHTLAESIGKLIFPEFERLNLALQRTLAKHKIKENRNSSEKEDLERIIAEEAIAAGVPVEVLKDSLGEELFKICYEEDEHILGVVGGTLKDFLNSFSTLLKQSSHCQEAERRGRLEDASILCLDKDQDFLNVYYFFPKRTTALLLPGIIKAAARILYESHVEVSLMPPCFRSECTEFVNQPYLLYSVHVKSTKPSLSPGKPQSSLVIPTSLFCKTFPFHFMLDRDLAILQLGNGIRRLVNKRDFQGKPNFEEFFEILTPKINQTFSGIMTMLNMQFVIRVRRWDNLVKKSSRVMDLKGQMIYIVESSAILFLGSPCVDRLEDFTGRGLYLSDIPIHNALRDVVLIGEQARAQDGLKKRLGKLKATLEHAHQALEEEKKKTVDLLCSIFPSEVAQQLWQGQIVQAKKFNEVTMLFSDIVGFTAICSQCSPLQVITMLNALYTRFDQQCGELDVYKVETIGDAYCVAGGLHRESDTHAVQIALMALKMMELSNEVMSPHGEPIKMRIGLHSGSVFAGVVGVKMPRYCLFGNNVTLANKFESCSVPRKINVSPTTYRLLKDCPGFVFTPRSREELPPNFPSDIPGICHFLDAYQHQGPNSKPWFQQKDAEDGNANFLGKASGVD
Briefly: Biological cellular assay: sGC activity by phosphorylation of VASP in rat aortic smooth muscle cells. It is filed as cell-based. The following applies: primary rat aortic smooth muscle cells, pre-incubated with 10 μM ODQ, 30 min at 37° C., phospho-VASP (pSer239) fluorescent signal; read-out: Cell assay pEC50 (converted). The method, then:
The activity of soluble guanylate cyclase (sGC) was tested in an assay based on measuring phosphorylation of the protein kinase G (PKG) substrate vasodilator-stimulated phosphoprotein (VASP) in rat aortic smooth muscle cells. […] Dimethylsulfoxide (DMSO) vehicle and varying concentrations of the compound to be tested were then added. Following a 30 min incubation at 37° C., media was aspirated and the cells were rinsed with phosphate-buffered saline (PBS) and fixed with 4% formaldehyde in PBS by incubating at room temperature for 20 min. Cells were then washed with PBS and permeabilized for 10 min using 0.1% triton X-100 in PBS. Following PBS rinsing, the cells were blocked for 90 min at room temperature with blocking buffer. The buffer was aspirated and the cells were treated overnight at 4° C. with primary antibody (pSer239-VASP, rabbit polyclonal Ab) diluted 1:500 in blocking buffer. Following three washes with 0.05% Tween 20, the cells were treated for 1 h at room temperature with a fluorescent labeled secondary antibody (IRDye® 800CW Donkey Anti-Rabbit IgG) diluted 1:2500 in blocking buffer with 0.05% Tween 20. Following two washes with PBS, infrared fluorescence was measured using an Odyssey Infrared Imaging System. The activity of a test compound was determined as the pEC50 value which is the concentration able to increase by 50% (vs. Bmax) the phospho-VASP fluorescent signal. Front. Pharmacol., 5 Jul. 2012|doi: 10.3389/fphar.2012.00128, Volume 3 July, 2012, Article number 128.

Counter-ions that a name gives are not always drawn.

`Cc1cc(C2CCN(C(=O)C3CCOC3)CC2)ccc1COc1c(F)cc(F)cc1-c1cccc(N2CCC(C(=O)O)CC2)n1` (stereo not shown) [Example 69, 1-(6-(3,5-difluoro-2-((2-methyl-4-(1-(tetrahydrofuran-3-carbonyl)piperidin-4-yl)benzyl)oxy)phenyl)pyridin-2-yl)piperidine-4-carboxylic acid, Sodium salt]: the EC50 is 0.251 nM.

Turning to `Cc1cc(C2CCN(CC(F)(F)F)CC2)ccc1COc1c(F)cc(F)cc1-c1cccc(N2CCC(C(=O)O)CC2)n1` [Example 5, 1-(6-(3,5-difluoro-2-((2-methyl-4-(1-(2,2,2-trifluoroethyl)piperidin-4-yl)benzyl)oxy)phenyl)pyridin-2yl)piperidine-4-carboxylic acid], the EC50 was 0.501 nM.

For the molecule `Cc1cc(C2CCN(C(=O)CC(=O)O)CC2)ccc1COc1c(F)cc(F)cc1-c1cccc(N2CCC(C(=O)O)CC2)n1` [Example 81, 1-(6-(2-((4-(1-(2-carboxyacetyl)piperidin-4-yl)-2-methylbenzyl)oxy)-3,5-difluorophenyl)pyridin-2-yl)piperidine-4-carboxylic acid, di-Sodium salt], the EC50 is 15.8 nM.

`Cc1cc(C2CCN(C3CC3)CC2)ccc1COc1c(F)cc(F)cc1-c1cccc(N2CCC(C(=O)O)CC2)n1` [Example 45, 1-(6-(2-((4-(1-cyclopropylpiperidin-4-yl)-2-methylbenzyl)oxy)-3,5-difluorophenyl)pyridin-2-yl)piperidine-4-carboxylic acid, Sodium salt]: the EC50 was 3.16 nM.

`Cc1nc(C2CCN(CC(F)(F)F)CC2)ccc1COc1c(F)cc(F)cc1-c1cccc(N2CCC(C(=O)O)CC2)n1` [Example 14, 1-(6-(3,5-difluoro-2-((2-methyl-6-(1-(2,2,2-trifluoroethyl)piperidin-4-yl)pyridin-3-yl)methoxy)phenyl)pyridin-2-yl)piperidine-4-carboxylic acid]: the EC50 is 10 nM.

Take `Cc1cc(C2CCN(C3COC3)CC2)ccc1COc1c(Cl)cccc1-c1cccc(N2CCC(C(=O)O)CC2)n1` [Example 36, 1-(6-(3-chloro-2-((2-methyl-4-(1-(oxetan-3-yl)piperidin-4-yl)benzyl)oxy)phenyl)pyridin-2-yl)piperidine-4-carboxylic acid, Sodium salt]: the EC50 was 10 nM.

In the case of `COCCN1CCC(c2ccc(COc3c(F)cc(F)cc3-c3cccc(N4CCC(C(=O)O)CC4)n3)c(C)c2)CC1` [Example 48, 1-(6-(3,5-difluoro-2-((4-(1-(2-methoxyethyl)piperidin-4-yl)-2-methylbenzyl)oxy)phenyl)pyridin-2-yl)piperidine-4-carboxylic acid, Sodium salt], the EC50 was 15.8 nM.

As for `Cc1nc(C2CCN(C3CCOC3)CC2)ccc1COc1c(F)cc(F)cc1-c1cccc(N2CCC(C(=O)O)CC2)n1` (stereo not shown) [Example 20, 1-(6-(3,5-difluoro-2-((2-methyl-6-(1-(tetrahydrofuran-3-yl)piperidin-4-yl)pyridin-3-yl)methoxy)phenyl)pyridin-2-yl)piperidine-4-carboxylic acid], the EC50 was 158 nM.

In the case of `Cc1nc(C2CCN(C(=O)CO)CC2)ccc1COc1c(F)cc(F)cc1-c1cccc(N2CCC(C(=O)O)CC2)n1` [Example 33, 1-(6-(3,5-difluoro-2-((6-(1-(2-hydroxyacetyl)piperidin-4-yl)-2-methylpyridin-3-yl)methoxy)phenyl)pyridin-2-yl)piperidine-4-carboxylic acid, Sodium salt], the EC50 was 15.8 nM.

With `Cc1nc(C2CCN(C3COC3)CC2)ccc1COc1c(F)cc(F)cc1-c1cccc(N2CCC(C(=O)O)CC2)n1` [Example 17, 1-(6-(3,5-difluoro-2-((2-methyl-6-(1-(oxetan-3-yl)piperidin-4-yl)pyridin-3-yl)methoxy)phenyl)pyridin-2-yl)piperidine-4-carboxylic acid], the EC50 was 79.4 nM.
